# In patent publication US20130303460A1, “PEPTIDES AND COMPOSITIONS FOR THE TREATMENT OF NEUROECTODERMAL DERIVED TUMORS AND RETINOBLASTOMA” (Biokine Therapeutics Ltd., priority 2011, published 2013):
# Assays:
# [1] = test system: Neuroblastoma cancer cell lines (SHY-5Y, SK-N-BE and NHH-NB-11); assay: Neuroblastoma cell death, PI+ cells by FACS and morphological assays; type: cell-based, human; details: 1% FCS, twenty hr, SK-N-BE and NHH-NB-11 (FIGS. 5, 6)
# Method: The effect of BKT140 or AMD3100 on the proliferation of neuroblastoma cancer cell lines was tested by seeding the cells at 2×10^4 cells/1 ml per well into a 24-well plate in medium supplemented with 1% FCS. Twenty hr later the cells stained with PI (Sigma, St. Louis, Mo.), and the number of PI+cells (death cells) was determined using FACS analysis (as described above) (see, FIG. 6A).
# [2] = test system: epithelial tumor cells (e.g., breast and prostate carcinoma and glioblastoma); assay: Effect on epithelial tumor cells; type: cell-based; details: summary statement, example not given
# Y79 Retinoblastoma cells = assay: Survival of Y79 retinoblastoma cells (PI staining, FACS); type: cell-based, human; details: 4, 8, 20 and 40 micromolar, 24 hr; PI staining FACS (FIG. 3)
# Method: Y79: Retinoblastoma cells from primary tumor with familial history of Retinoblastoma;
# All cell lines were cultured in RPMI1640 (Gibco BRL life technologies)+10% FCS, 1% L-Glutamine, 1% PS (Penicillin, Streptomycin) (Biological Industries, Kibbutz Beth Haemek, Israel) at 37° C., 5% CO2.
# 4F-benzoyl-TN14003 (designated BKT140) effect on Y79 Retinoblastoma cells survival.
# [3] = test system: Neuroblastoma tumor cells injected into the adrenal; assay: Neuroblastoma tumor growth in mice, residual disease model; type: in vivo, NOD/SCID mice; details: 300 μg per mouse from day 3 until day 30 after inoculation; residual disease model (FIG. 7)
# Method: (§1) NOD/SCID mice were maintained under defined flora conditions at the Hebrew University Pathogen-Free Animal Facility. All experiments were approved by the Animal Care Committee of the Hebrew University. 10^6 Neuroblastoma tumor cells were injected into the adrenal of the mice ([…] per mouse). As control, mice were treated with PBS. Tumor growth was monitored weekly. MRI testing was performed on a horizontal 4.7 T Bruker Biospec spectrometer, using a birdcage coil.
# [4] = test system: Neuroblastoma cancer cell lines (SHY-5Y, SK-N-BE and NHH-NB-11); assay: Neuroblastoma cell viability, CellTiter 96 AQueous Non-Radioactive Cell Proliferation Assay; type: cell-based, human; details: 72 hours, 10% FCS; compared to other CXCR4 antagonists (e.g. AMD3100) (FIG. 4)
# Method: Neuroblastoma cancer cell lines (SHY-5Y, SK-N-BE and NHH-NB-11, FIGS. 4A, 4B, and 4C, respectively) were seeded at 2×10^4 viable cells/100 μl per well into a 96-well plate in triplicates in a medium supplemented with 10% FCS and incubated with different concentrations of BKT140, PLK1, AurA or AMD3100 for 72 hours. The plate was than tested for cell viability using the CellTiter 96® AQueous Non-Radioactive Cell Proliferation Assay.
# [5] = test system: Neuroblastoma tumor cells injected into the adrenal; assay: Neuroblastoma tumor growth in mice, established (treatment) disease model; type: in vivo, NOD/SCID mice; details: subcutaneously 300 μg per mouse until day 30, started when tumor size reached ~0.04 cm^2 (FIG. 8)
# Method: as §1
substance,measurement,setting,value
4F-benzoyl-Arg-Arg-Nal-Cys-Tyr-Cit-Lys-DLys-Pro-Tyr-Arg-Cit-Cys-Arg-NH2 [4F-benzoyl-TN14003],neuroblastoma cell death (PI+ cells),[1],stimulate neuroblastoma cell death
same,growth of epithelial tumor cells,[2]; breast and prostate carcinoma and glioblastoma,in some cases even stimulated the growth of epithelial tumor cells
same,epithelial tumor cell death,[2],did not induce epithelial tumor cell death
same,cell death / survival of Y79 retinoblastoma cells,Y79 Retinoblastoma cells,stimulate cell death of retinoblastoma cells
same,tumor growth,[3],delayed and in some cases inhibited tumor growth
same,cell viability of neuroblastoma cells,[4],remarkably low cell viability
same,tumor growth,[5],delayed and in some cases inhibited tumor growth
